Article PMC6047346 (Journal of medicinal chemistry, 2017)
Read-outs that look alike come from different tables or passages of the source. Blank lines part the entries; values can stand above or below the compound they belong to.

How the values were obtained:
U937 cells [1] = details: cited from earlier work
rats = details: cited from earlier work
SphK1 = details: both the rat and human enzymes; cited from earlier work
human SphK2 = target: T1, human SphK2 (Homo sapiens, UniProt Q9NRA0); assay: Sphingosine kinase assay, recombinant human SphK2, γ-[32P]ATP; details: for inhibition at 0.3 µM: read-out: SphK2 inhibition (decrease of activity); for hSphK2 (SphK activity, % control, no inhibitor added): compounds at 0.3 μM, triplicate, 10 μM sphingosine, 250 μM γ-[32P]ATP
T1 sequence (Q9NRA0 1-654): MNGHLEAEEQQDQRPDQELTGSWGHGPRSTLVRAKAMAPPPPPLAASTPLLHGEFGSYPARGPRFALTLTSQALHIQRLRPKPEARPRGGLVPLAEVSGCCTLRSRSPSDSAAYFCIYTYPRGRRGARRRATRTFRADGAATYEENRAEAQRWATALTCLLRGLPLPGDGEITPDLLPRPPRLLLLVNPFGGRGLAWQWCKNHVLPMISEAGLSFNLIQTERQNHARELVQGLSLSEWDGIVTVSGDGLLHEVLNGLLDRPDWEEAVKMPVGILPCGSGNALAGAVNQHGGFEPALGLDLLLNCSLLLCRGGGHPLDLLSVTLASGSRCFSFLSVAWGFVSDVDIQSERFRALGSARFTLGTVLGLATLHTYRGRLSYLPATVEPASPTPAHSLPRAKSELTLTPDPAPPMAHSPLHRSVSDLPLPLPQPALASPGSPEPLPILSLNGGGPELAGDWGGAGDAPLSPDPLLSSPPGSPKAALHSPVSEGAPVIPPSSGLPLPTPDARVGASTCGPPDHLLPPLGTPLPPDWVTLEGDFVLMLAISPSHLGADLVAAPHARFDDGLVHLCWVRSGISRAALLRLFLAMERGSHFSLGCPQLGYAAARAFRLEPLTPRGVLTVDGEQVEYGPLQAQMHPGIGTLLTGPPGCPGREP

human SphK1 = human SphK1 (Homo sapiens, UniProt Q9NYA1); assay: Sphingosine kinase assay, recombinant human SphK1, γ-[32P]ATP; details: for remaining activity at 0.3 µM: read-out: hSphK1 (SphK activity, % control, no inhibitor added)
C57BL/6 mice = assay: Blood S1P levels in mice after ip dosing, LC-MS-MS; type: in vivo; details: single 10 mg/kg ip dose
U937 cells [2] = assay: Sphingolipid; type: cell-based, human; details: 2 h incubation, LC-MS-MS
[3] = read-out: hSphK2 (SphK activity, % control, no inhibitor added)
[4] = read-out: SphK2 activity remaining

Chain of human SphK1 (Q9NYA1 whole entry): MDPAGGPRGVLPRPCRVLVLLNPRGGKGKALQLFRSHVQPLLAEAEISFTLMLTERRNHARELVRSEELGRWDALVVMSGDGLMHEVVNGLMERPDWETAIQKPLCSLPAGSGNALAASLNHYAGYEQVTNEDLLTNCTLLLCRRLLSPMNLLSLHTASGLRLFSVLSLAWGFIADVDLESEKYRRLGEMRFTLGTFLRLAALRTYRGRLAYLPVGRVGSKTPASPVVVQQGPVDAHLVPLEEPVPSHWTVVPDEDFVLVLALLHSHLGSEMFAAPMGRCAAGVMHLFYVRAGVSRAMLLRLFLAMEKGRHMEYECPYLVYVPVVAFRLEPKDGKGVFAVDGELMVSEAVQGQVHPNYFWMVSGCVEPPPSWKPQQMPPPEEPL

Compound: CCCCCCCCc1ccc(-c2noc(C[C@@H]3CCCN3C(=N)N)n2)cc1 [Compound 3]
S1P levels in cultured human U937 leukemia cells (U937 cells [1]): reduce S1P levels
S1P levels in the bloodstream of rats (rats): reduce S1P levels
selectivity for SphK1 over SphK2 (SphK1): > 100 fold

Compound: Cl.N=C(N)N1CCC[C@H]1Cc1nc(-c2ccc(Nc3nc(-c4cc(C(F)(F)F)cc(C(F)(F)F)c4)cs3)cc2)no1 [Compound 20bb, (S)-amino(2-((3-(4-((4-(3,5-bis(trifluoromethyl)phenyl)thiazol-2-yl)amino)phenyl)-1,2,4-oxadiazol-5-yl)methyl)pyrrolidin-1-yl)methaniminium chloride]
SphK1 inhibition, in words (human SphK1; concentrations up to 1 μM): inactive

Compound: Cl.N=C(N)N1CCC[C@H]1Cc1nc(-c2ccc(Nc3nc(-c4ccc(-c5ccccc5)cc4)cs3)cc2)no1 [Compound 20dd, (S)-(2-((3-(4-((4-([1,1′-biphenyl]-4-yl)thiazol-2-yl)amino)phenyl)-1,2,4-oxadiazol-5-yl)methyl)pyrrolidin-1-yl)(amino)methaniminium chloride]
blood S1P levels (C57BL/6 mice; after 24 hours): returned to basal levels
blood S1P levels (C57BL/6 mice; two and six hour time points): increased
S1P levels in U937 cells (U937 cells [2]): concentration-dependent decrease
Sph (sphingosine) levels in U937 cells (U937 cells [2]): remained constant

Compound: Cl.N=C(N)N1CCC[C@H]1Cc1nc(-c2ccc(Nc3nc(-c4cccc(C(F)(F)F)c4)cs3)cc2)no1 [Compound 20l, (S)-amino(2-((3-(4-((4-(3-(trifluoromethyl)phenyl)thiazol-2-yl)amino)phenyl)-1,2,4-oxadiazol-5-yl)methyl)pyrrolidin-1-yl)methaniminium chloride]
S1P levels in U937 cells (U937 cells [2]): concentration-dependent decrease
Sph (sphingosine) levels in U937 cells (U937 cells [2]): remained constant

Compound: CCOc1ccc(-c2csc(Nc3ccc(-c4noc(C[C@@H]5CCCN5C(=N)N)n4)cc3)n2)cc1 [Compound 20p, (S)-amino(2-((3-(4-((4-(4-ethoxyphenyl)thiazol-2-yl)amino)phenyl)-1,2,4-oxadiazol-5-yl)methyl)pyrrolidin-1-yl)methaniminium chloride]
inhibition at 0.3 µM (human SphK2): < 30%
remaining activity at 0.3 µM (human SphK2; [3]): 80 ± 7%
remaining activity at 0.3 µM (human SphK1): 75 ± 0.2%

Compound: Cl.N=C(N)N1CCC[C@H]1Cc1nc(-c2ccc(Nc3nc(-c4ccc(-c5ccc(C(F)(F)F)cc5)cc4)cs3)cc2)no1 [Compound 23c, (S)-amino(2-((3-(4-((4-(4′-(trifluoromethyl)-[1,1′-biphenyl]-4-yl)thiazol-2-yl)amino)phenyl)-1,2,4-oxadiazol-5-yl)methyl)pyrrolidin-1-yl)methaniminium chloride]
SphK2 inhibition, in words (human SphK2; screen at 0.3 μM): inactive
SphK1 inhibition, in words (human SphK1; screen at 0.3 μM): inactive

Compound: N=C(N)N1CCC[C@H]1Cc1nc(-c2ccc(Oc3nc(-c4ccc(C(F)(F)F)cc4)cs3)cc2)no1 [Compound 31, (S)-amino(2-((3-(4-((4-(4-(trifluoromethyl)phenyl)thiazol-2-yl)oxy)phenyl)-1,2,4-oxadiazol-5-yl)methyl)pyrrolidin-1-yl)methaniminium chloride]
inhibition at 0.3 µM (human SphK2): ~45%
inhibition at 0.3 µM (human SphK1; read-out: SphK1 inhibition (decrease of activity)): ~45%

Compound: (S)-(2-((3-(4-((4-([1,1′-biphenyl]-4-yl)thiazol-2-yl)amino)phenyl)-1,2,4-oxadiazol-5-yl)methyl)pyrrolidin-1-yl)(amino)methaniminium chloride [Compound 34]
hSphK2 (SphK activity, % control, no inhibitor added) (human SphK2): 100 ±5 % control
SphK2 inhibition, in words (human SphK2; concentrations up to 1 μM): completely inactive

Compound: (S)-amino(2-((3-(4-((4-(benzofuran-2-yl)thiazol-2-yl)amino)phenyl)-1,2,4-oxadiazol-5-yl)methyl)pyrrolidin-1-yl)methaniminium chloride [Compound 20ee]
hSphK2 (SphK activity, % control, no inhibitor added) (human SphK2): 67 ±5 % control

Continued, values first:

SphK2 inhibition, in words (human SphK2; screen at 0.3 μM): poor inhibition
SphK1 inhibition, in words (human SphK1; screen at 0.3 μM): poor inhibition
Compound: Cl.N=C(N)N1CCC[C@H]1Cc1nc(-c2ccc(Nc3nc(-c4ccccc4)cs3)cc2)no1 [Compound 20a, (S)-amino(2-((3-(4-((4-phenylthiazol-2-yl)amino)phenyl)-1,2,4-oxadiazol-5-yl)methyl)pyrrolidin-1-yl)methaniminium chloride]

SphK2 inhibition, in words (human SphK2; screen at 0.3 μM): inactive
SphK1 inhibition, in words (human SphK1; screen at 0.3 μM): inactive
Compound: N=C(N)N1CCC[C@H]1Cc1nc(-c2ccc(Nc3nc(-c4ccncc4)cs3)cc2)no1.O=C(O)C(F)(F)F [Compound 20b, (S)-amino(2-((3-(4-((4-(pyridin-4-yl)thiazol-2-yl)amino)phenyl)-1,2,4-oxadiazol-5-yl)methyl)pyrrolidin-1-yl)methaniminium trifluoroacetate]

SphK2 inhibition, in words (human SphK2; screen at 0.3 μM): inactive
SphK1 inhibition, in words (human SphK1; screen at 0.3 μM): inactive
Compound: Cl.N=C(N)N1CCC[C@H]1Cc1nc(-c2ccc(Nc3nc(-c4cccnc4)cs3)cc2)no1 [Compound 20c, (S)-amino(2-((3-(4-((4-(pyridin-3-yl)thiazol-2-yl)amino)phenyl)-1,2,4-oxadiazol-5-yl)methyl)pyrrolidin-1-yl)methaniminium chloride]

inhibition at 0.3 µM (human SphK2): < 30%
remaining activity at 0.3 µM (human SphK2; [3]): 44 ± 12%
remaining activity at 0.3 µM (human SphK1): 89 ± 0.7%
Compound: Cc1ccc(-c2csc(Nc3ccc(-c4noc(C[C@@H]5CCCN5C(=N)N)n4)cc3)n2)cc1 [Compound 20n, (S)-amino(2-((3-(4-((4-(p-tolyl)thiazol-2-yl)amino)phenyl)-1,2,4-oxadiazol-5-yl)methyl)pyrrolidin-1-yl)methaniminium chloride]

inhibition at 0.3 µM (human SphK2): < 30%
remaining activity at 0.3 µM (human SphK2; [3]): 82 ± 6%
remaining activity at 0.3 µM (human SphK1): 58 ± 4%
Compound: COc1ccc(-c2csc(Nc3ccc(-c4noc(C[C@@H]5CCCN5C(=N)N)n4)cc3)n2)cc1 [Compound 20o, (S)-amino(2-((3-(4-((4-(4-methoxyphenyl)thiazol-2-yl)amino)phenyl)-1,2,4-oxadiazol-5-yl)methyl)pyrrolidin-1-yl)methaniminium chloride]

remaining activity at 0.3 µM (human SphK2; [4]): ~40%
remaining activity at 0.3 µM (human SphK2; [3]): 84 ± 2%
Compound: N=C(N)N1CCC[C@H]1Cc1nc(-c2ccc(Nc3nc(-c4ccc(OC(F)(F)F)cc4)cs3)cc2)no1 [Compound 20r, (S)-amino(2-((3-(4-((4-(4-(trifluoromethoxy)phenyl)thiazol-2-yl)amino)phenyl)-1,2,4-oxadiazol-5-yl)methyl)pyrrolidin-1-yl)methaniminium chloride]

remaining activity at 0.3 µM (human SphK2; [3]): 100 ± 2%
remaining activity at 0.3 µM (human SphK1): 90 ± 1%
Compound: N=C(N)N1CCC[C@H]1Cc1nc(-c2ccc(Nc3nc(-c4cccc(OC(F)(F)F)c4)cs3)cc2)no1 [Compound 20s, (S)-amino(2-((3-(4-((4-(3-(trifluoromethoxy)phenyl)thiazol-2-yl)amino)phenyl)-1,2,4-oxadiazol-5-yl)methyl)pyrrolidin-1-yl)methaniminium chloride]

remaining activity at 0.3 µM (human SphK2; [4]): ~70%
SphK1 inhibition, in words (human SphK1; screen at 0.3 μM): no SphK1 inhibition
Compound: COc1ccc(-c2csc(Nc3ccc(-c4noc(C[C@@H]5CCCN5C(=N)N)n4)cc3)n2)cc1Cl.Cl [Compound 20v, (S)-amino(2-((3-(4-((4-(3-chloro-4-methoxyphenyl)thiazol-2-yl)amino)phenyl)-1,2,4-oxadiazol-5-yl)methyl)pyrrolidin-1-yl)methaniminium chloride]

SphK2 inhibition, in words (human SphK2; screen at 0.3 μM): inactive
SphK1 inhibition, in words (human SphK1; screen at 0.3 μM): inactive
Compound: Cl.N=C(N)N1CCC[C@H]1Cc1nc(-c2ccc(Nc3nc(-c4ccc(-c5cccc(C(F)(F)F)c5)cc4)cs3)cc2)no1 [Compound 23d, (S)-amino(2-((3-(4-((4-(3′-(trifluoromethyl)-[1,1′-biphenyl]-4-yl)thiazol-2-yl)amino)phenyl)-1,2,4-oxadiazol-5-yl)methyl)pyrrolidin-1-yl)methaniminium chloride]
